Measured values reported in paper PMC11788587, “Validating Low‐Dose Iohexol as a Marker for Glomerular Filtration Rate by In Vitro and In Vivo Studies” (Clinical and Translational Science, 2025).

Tests used:
[1] = cited from earlier work
hMATE1 = target: T1, hMATE1 (Homo sapiens, UniProt Q96FL8); test: Inhibition of hMATE1-mediated MPP+ uptake, stably transfected 293 cells; format: cell-based; conditions: substrate 3 µM MPP+, median (95% CI)
T1 construct: expressed in transfected cells; host or cells: HEK-293 (293) cells, pEBTetD plasmid, doxycycline-induced
T1 sequence (Q96FL8 1-570): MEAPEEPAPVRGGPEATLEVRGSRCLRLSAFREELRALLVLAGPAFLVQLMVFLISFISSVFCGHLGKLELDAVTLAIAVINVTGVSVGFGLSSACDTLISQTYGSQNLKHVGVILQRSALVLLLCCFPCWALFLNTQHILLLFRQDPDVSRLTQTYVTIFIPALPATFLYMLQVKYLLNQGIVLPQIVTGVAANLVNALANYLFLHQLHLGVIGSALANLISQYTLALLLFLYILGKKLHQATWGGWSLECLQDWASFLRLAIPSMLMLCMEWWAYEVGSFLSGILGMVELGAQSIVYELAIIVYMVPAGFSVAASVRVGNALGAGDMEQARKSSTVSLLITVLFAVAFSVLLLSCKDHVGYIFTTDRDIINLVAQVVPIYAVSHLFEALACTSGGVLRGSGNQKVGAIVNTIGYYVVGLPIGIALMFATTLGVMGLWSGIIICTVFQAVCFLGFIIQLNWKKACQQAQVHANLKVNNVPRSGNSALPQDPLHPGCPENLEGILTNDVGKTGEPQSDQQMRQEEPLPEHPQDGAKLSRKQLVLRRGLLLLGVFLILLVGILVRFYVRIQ
Source text: We characterized the inhibitory potential of iohexol on major drug transporters recommended by regulatory agencies, which were previously assessed in a clinical transporter phenotyping cocktail study. These transporters include hOAT1, hOAT3, hOCT1, hOCT2, hMATE1, hMATE2K, human organic anion transporter polypeptides (hOATP)1B1, hOATP1B3, and human multidrug resistance protein (hMDR)1. Additionally, we investigated whether iohexol is a substrate for any of the renal transporters among these, including hOAT1/3, hOCT1/2, and hMATE1/2K. Cell‐based uptake assays were used to assess the activities of hOAT1/3, hOCT1/2, hMATE1/2K, and hOATP1B1/1B3. Inside‐out membrane vesicle uptake assays were used to evaluate the activity of hMDR1.
To determine the maximal inhibitory potential of iohexol, intracellular accumulation of a standard substrate was measured with and without the clinically relevant highest concentrations of iohexol. Control inhibitors were tested in each experiment.
In all subsequent in vitro studies, control experiments were conducted to validate the results. These included positive controls for substrates and inhibitors, as well as cells either without transporter expression or transfected with an empty vector, and control vesicles. Each condition, including cells or vesicles with the transporter and their respective controls, was analyzed in at least three replicates. For detailed information on materials, methods, and data analysis techniques used, refer to the Supporting Information. […]
R version 4.2.1 (R Foundation for Statistical Computing, Vienna, Austria) was used for statistical evaluations and data visualization. The data analysis approach for the in vitro study was detailed by Hsin CH et al..^1 In brief, for transport assays, the initial uptake rate was calculated by normalizing the substrate concentration to both the protein concentration and the incubation time for each dish or well. The transporter-mediated uptake rate (net uptake) was determined by performing an element-wise subtraction of uptake rates from different conditions. […]

CC(=O)N(CC(O)CO)c1c(I)c(C(=O)NCC(O)CO)c(I)c(C(=O)NCC(O)CO)c1I (centres unmarked) [iohexol]
Volume of distribution, previous three-compartment model estimate (median) [1]: 15.09 L | Cmax ([1]; following a 3235 mg iohexol injection, patients aged ≥ 70 years, median GFR 60.7 mL/min/1.73 m^2, read-out: Cmax (initial plasma concentration)): ~370 µM | Inhibitory effect (% reduction of specific activity) (hMATE1; 20 mM iohexol): no notable inhibitory effects | inhibition at 1000 µM (hMATE1; HEK293, 1 mM iohexol, read-out: Inhibitory effect (% reduction of specific activity)): 5.4% | inhibition at 20000 µM (hMATE1; HEK293, 20 mM iohexol, read-out: Inhibitory effect (% reduction of specific activity)): 12%
